# Literature values in patent US6743821B2, “Glycerol-lactate esters for use as an energy supplement during exercise and recovery” (priority 2001, dated 2004).
# Legend:
# [1] = blood of Wistar rats
# isolated working hearts = settings: concentrated sodium lactate added to hearts from shocked animals
SMILES,conversion of the infused tracer in the blood [1],performance of isolated working hearts (isolated working hearts)
[13CH3]C(=O)C(=O)O [[3-^13C]pyruvate],quickly converted to [3-^13C]lactate,
CC(O)C(=O)[O-].[Na+] (centres unmarked) [sodium lactate],,significantly enhanced
